Patent USRE42890E1, “Furazanobenzimidazoles” (Basilea Pharmaceutica AG, priority 2003, dated 2011)

What was measured:
Jurkat = experiment: MTS proliferation assay, Jurkat; format: cell-based, human; conditions: 72 h incubation, read-out: MTS proliferation assay IC 50 Jurkat
In short: (§1)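 Absorbance at 492 nm after 3 h with MTS reagent gave the proliferation read-out. Before that, cells in RPMI-1640 complete medium (5% or 10% FCS) were treated 72 h with compound at four final concentrations, 0.3 to 10 μM.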

Jily = experiment: MTS proliferation assay, Jily; format: cell-based; conditions: 72 h incubation, read-out: MTS proliferation assay IC 50 Jily
In short: (§2)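 Read-out: MTS absorbance at 492 nm after 3 h reagent incubation. Before that, cells grew 72 h at 37° C/7.5% CO2 with test compounds at final concentrations of 10 μM, 3 μM, 1 μM and 0.3 μM, added 24 h post-seeding.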

HT1080 = experiment: MTS proliferation assay, HT1080; format: cell-based, human; conditions: HT1080, 72 h incubation; read-out: MTS proliferation assay IC 50 HT1080
In short: as §1

HeLa = experiment: MTS proliferation assay, HeLa; format: cell-based, human; conditions: 72 h incubation, read-out: MTS proliferation assay IC 50 HeLa
In short: as §1

MRC5 = experiment: MTS proliferation assay, MRC5; format: cell-based; conditions: MRC5, 72 h incubation; read-out: MTS proliferation assay IC 50 MRC5
In short: as §2

[1] = test system: adherent cells or suspension cells; experiment: Hoechst 33342 nuclear staining (fraction of apoptotic nuclei); format: cell-based; design: key: 0 relating to no activity; 1 relating to weak activity comprising less than 70% of the cells; score 2 relating to strong activity comprising more than 70% of the cells

Compound	IC50 (Jurkat)	IC50 (Jily)	IC50 (HT1080)	IC50 (HeLa)	IC50 (MRC5)	Hoechst 33342 nuclear staining score ([1]; H460, conc 0.01 μm)	Hoechst 33342 nuclear staining score ([1]; H460, conc 0.1 μm)	Hoechst 33342 nuclear staining score ([1]; H460, conc 1 μm)	Hoechst 33342 nuclear staining score ([1]; HeLa, conc 0.01 μm)	Hoechst 33342 nuclear staining score ([1]; HeLa, conc 0.1 μm)	Hoechst 33342 nuclear staining score ([1]; HeLa, conc 1 μm)	Hoechst 33342 nuclear staining score ([1]; Jily, conc 0.01 μm)	Hoechst 33342 nuclear staining score ([1]; Jily, conc 0.1 μm)	Hoechst 33342 nuclear staining score ([1]; Jily, conc 1 μm)	Hoechst 33342 nuclear staining score ([1]; Jurkat, conc 0.01 μm)	Hoechst 33342 nuclear staining score ([1]; Jurkat, conc 0.1 μm)	Hoechst 33342 nuclear staining score ([1]; Jurkat, conc 1 μm)	Hoechst 33342 nuclear staining score ([1]; MRC5, conc 0.01 μm)	Hoechst 33342 nuclear staining score ([1]; MRC5, conc 0.1 μm)	Hoechst 33342 nuclear staining score ([1]; MRC5, conc 1 μm)	other results
Nc1nonc1-c1nc2ccccc2n1CC(=O)c1ccc(Cl)nc1 [Example 70]	< 10 nM	< 10 nM	< 10 nM	< 10 nM	< 10 nM	1 (1 relating to weak activity comprising less than 70% of the cells)	2 (score 2 relating to strong activity comprising more than 70% of the cells)	2 (score 2 relating to strong activity comprising more than 70% of the cells)	0	2 (score 2 relating to strong activity comprising more than 70% of the cells)	2 (score 2 relating to strong activity comprising more than 70% of the cells)	2 (score 2 relating to strong activity comprising more than 70% of the cells)	2 (score 2 relating to strong activity comprising more than 70% of the cells)	2 (score 2 relating to strong activity comprising more than 70% of the cells)	2 (score 2 relating to strong activity comprising more than 70% of the cells)	2 (score 2 relating to strong activity comprising more than 70% of the cells)	2 (score 2 relating to strong activity comprising more than 70% of the cells)	1 (1 relating to weak activity comprising less than 70% of the cells)	2 (score 2 relating to strong activity comprising more than 70% of the cells)	2 (score 2 relating to strong activity comprising more than 70% of the cells)	Hoechst 33342 nuclear staining score ([1]; PBLs, conc 0.01 μm): 0; Hoechst 33342 nuclear staining score ([1]; PBLs, conc 0.1 μm): 0; Hoechst 33342 nuclear staining score ([1]; PBLs, conc 1 μm): 0
Nc1nonc1-c1nc2ccccc2n1CC(=O)c1ccc2ccccc2c1 [Example 42]	10 to 100 nM	10 to 100 nM	10 to 100 nM	10 to 100 nM	100 to 1000 nM	0	2 (score 2 relating to strong activity comprising more than 70% of the cells)	2 (score 2 relating to strong activity comprising more than 70% of the cells)	0	1 (1 relating to weak activity comprising less than 70% of the cells)	2 (score 2 relating to strong activity comprising more than 70% of the cells)	0	2 (score 2 relating to strong activity comprising more than 70% of the cells)	2 (score 2 relating to strong activity comprising more than 70% of the cells)	0	2 (score 2 relating to strong activity comprising more than 70% of the cells)	2 (score 2 relating to strong activity comprising more than 70% of the cells)	0	2 (score 2 relating to strong activity comprising more than 70% of the cells)	2 (score 2 relating to strong activity comprising more than 70% of the cells)	Hoechst 33342 nuclear staining score ([1]; PBLs, conc 0.01 μm): 0; Hoechst 33342 nuclear staining score ([1]; PBLs, conc 0.1 μm): 0; Hoechst 33342 nuclear staining score ([1]; PBLs, conc 1 μm): 0
COc1cccc(/C=C/C(=O)Cn2c(-c3nonc3N)nc3ccccc32)c1 [Example 120]	> 1000 nM	> 1000 nM	> 1000 nM	> 1000 nM	> 1000 nM	0	0	0	0	0	0	0	0	0	0	0	0	0	0	0	Hoechst 33342 nuclear staining score ([1]; PBLs, conc 0.01 μm): 0; Hoechst 33342 nuclear staining score ([1]; PBLs, conc 0.1 μm): 0; Hoechst 33342 nuclear staining score ([1]; PBLs, conc 1 μm): 0
Cc1ccc(/C=C/C(=O)Cn2c(-c3nonc3N)nc3ccccc32)cc1 [Example 119]	> 1000 nM	> 1000 nM	> 1000 nM	> 1000 nM	> 1000 nM	0	0	0	0	0	0	0	0	0	0	0	0	0	0	0	Hoechst 33342 nuclear staining score ([1]; PBLs, conc 0.01 μm): 0; Hoechst 33342 nuclear staining score ([1]; PBLs, conc 0.1 μm): 0; Hoechst 33342 nuclear staining score ([1]; PBLs, conc 1 μm): 0
Nc1nonc1-c1nc2ccccc2n1CC(=O)c1ccc(F)cc1 [Example 67]	100 to 1000 nM	10 to 100 nM	100 to 1000 nM	100 to 1000 nM	100 to 1000 nM	0	0	2 (score 2 relating to strong activity comprising more than 70% of the cells)	0	0	2 (score 2 relating to strong activity comprising more than 70% of the cells)	0	2 (score 2 relating to strong activity comprising more than 70% of the cells)	2 (score 2 relating to strong activity comprising more than 70% of the cells)	0	2 (score 2 relating to strong activity comprising more than 70% of the cells)	2 (score 2 relating to strong activity comprising more than 70% of the cells)	0	0	1 (1 relating to weak activity comprising less than 70% of the cells)	Hoechst 33342 nuclear staining score ([1]; PBLs, conc 0.01 μm): 0; Hoechst 33342 nuclear staining score ([1]; PBLs, conc 0.1 μm): 0; Hoechst 33342 nuclear staining score ([1]; PBLs, conc 1 μm): 0
